Results on 17 compounds are retold here after patent US5574070A, “Substituted guanidines having high binding to the sigma receptor and the use thereof” (priority 1993, dated 1996).

In data set [1] the target is T1, sigma receptor from guinea pig brain (Cavia porcellus, UniProt Q60492).
T1 construct: from tissue; host or cells: guinea pig brain membranes
Nature of the data set: [3H]AZ-DTG binding and photoaffinity labeling of the sigma receptor. Conditions: for effect on [3H]AZ-DTG labeling of the 29 kD polypeptide: 10 uM. How it is done:
(§1) The filters were then irradiated with long-wavelength UV light for a 15 minute period. Filter-bound proteins were solubilized with 50 mM Tris pH 7.4, 0.1% sodium dodecyl sulfate. Solubilized proteins were subjected to SDS-polyacrylamide gel electrophoresis.

Data set [2] deals with sigma receptor (Cavia porcellus, UniProt Q60492). Nature of the data set: biochemical.
Chain of sigma receptor (Cavia porcellus, UniProt Q60492) (Q60492 whole entry): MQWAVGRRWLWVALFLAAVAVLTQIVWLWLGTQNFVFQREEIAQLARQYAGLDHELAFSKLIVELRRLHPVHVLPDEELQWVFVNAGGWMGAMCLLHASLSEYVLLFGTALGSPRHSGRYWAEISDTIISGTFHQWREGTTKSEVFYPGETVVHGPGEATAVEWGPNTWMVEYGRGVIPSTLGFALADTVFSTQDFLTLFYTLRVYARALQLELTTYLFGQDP
Data set [3] relates to sigma receptor. Nature of the data set: [3H]DTG displacement radioligand binding assay, guinea pig brain membranes.
In data set [4] the test system is sigma receptor. Nature of the data set: (+)[3H]3-PPP saturation binding, guinea pig brain membranes.
Description: For radioreceptor assays aliquots of the frozen membrane suspension were thawed and diluted tenfold with 50 nM Tris/HCl buffer, pH 7.4. […] The protein concentration in the 1 ml final incubation volume was 800 ug, corresponding to 32 mg of brain tissue (original wet weight). […] After incubation for 90 minutes at room temperature the membrane suspension was rapidly filtered under vacuum through Whatman GF/B glass fiber filters using a Brandel 48 well cell harvester (Brandel, Gaithersburg, Md.). […] The filters were dissolved in 10 ml each of Cytoscint (Westchem Products, San Diego, Calif.) and radioactivity was measured by liquid scintillation spectrometry at a counting efficiency of 35-50%.
Data set [5] has as its system social interaction of rats. Nature of the data set: rat social interaction test. In kind it is in vivo, rat (male Hooded Lister).
Excerpt: A second preferred animal model is the rat social interaction test described by Jones, B. J. et al., supra, wherein the time that two mice spend in social interaction is quantified. […] Both the familiarity and the light level of the test arena may be manipulated. Undrugged rats show the highest level of social interaction when the test arena is familiar and is lit by low light. Social interaction declines if the arena is unfamiliar to the rats or is lit by bright light. Anxiolytic agents prevent this decline. The overall level of motor activity may also be measured to allow detection of drug effects specific to social behaviors.
Male Hooded Lister rats (Glaxo bred, 200-250 g), were housed 5 to a cage and were kept in the laboratory environment for at least a week before testing. Rats paired in the test were taken from separate cages.
The test arena consisted of an open-topped box, 62×62×33 cm with a 7×7 matrix of infra-red photocell beams in the walls, 2.5 cm from the floor.
Testing involved placing each member of a pair of rats in opposite comers of the arena and then leaving them undisturbed for 10 min. while recording their behavior remotely on videotape. The behavioral assessments were made subsequently from the recordings. The time spent in social interaction was measured and expressed as a cumulative total for the 10 min session. The behaviors that comprised social interaction were: following with contact, sniffing (but not sniffing of the hindquarters), crawling over and under, tumbling, boxing and grooming.
The test system of another data set is anxiety behavior of mice. Nature of the data set: black:white test box (light/dark exploration) of mice.
In data set [6] the test system is rats trained to discriminate cyclazocine. The following applies: same concentrations; Holtzman, private communication; cited from earlier work.
A further data set has as its system PCP receptor. Conditions: Tam, personal communication; cited from earlier work.
For a further data set, the target named is [3H]MK-801. Nature of the data set: [3H]MK-801 displacement binding. Conditions: read-out: IC50 vs [3H]MK-801; Table II; ± s.e.m. (n).
Data set [7] concerns the target sigma receptor from guinea pig brain. Nature of the data set: [3H]AZ-DTG binding and photoaffinity labeling of the sigma receptor. The following applies: in the dark; brain membranes. How it is done: as §1
In data set [8] the test system is sigma receptor. Nature of the data set: [3H]DTG saturation binding / binding characteristics, guinea pig brain membranes. The following applies: for binding to sigma receptor sites (words): guinea pig brain membrane homogenates and slide-mounted rat and guinea pig brain sections. Here is the method: Values obtained were the mean of quadruplicate determinations.
Frozen guinea pig brains (Pel-Freeze, Rogers, Ariz.) were homogenized in 10 volumes (w/v) of 0.32M sucrose using a Polytron homogenizer. The homogenate was spun at 900×g for 10 minutes at 4° C. The supernatant was collected, and spun at 22,000×g for 20 minutes at 4° C. The pellet was resuspended in 10 volumes of 50 mM Tris/HCl buffer, pH 7.4, incubated at 37° C. for 30 minutes and spun again at 22,000×g for 20 minutes at 4° C. The pellet was then resuspended in 10 volumes of 50 mM Tris/HCl buffer, pH 7.4 and 10 ml aliquots of this membrane suspension were stored frozen at -70° C. until used in the binding assay.
For radioreceptor assays aliquots of the frozen membrane suspension were thawed and diluted tenfold with […] Tris/HCl buffer, pH 7.4. […] The protein concentration in the 1 ml final incubation volume was 800 ug, corresponding to 32 mg of brain tissue (original wet weight). […] After incubation for 90 minutes at room temperature the membrane suspension was rapidly filtered under vacuum through Whatman GF/B glass fiber filters using a Brandel 48 well cell harvester (Brandel, Gaithersburg, Md.). The filters were washed with 3×5 ml ice-cold […] Tris buffer (pH 7.4 at room temperature). The filters were dissolved in 10 ml each of Cytoscint (Westchem Products, San Diego, Calif.) and radioactivity was measured by liquid scintillation spectrometry at a counting efficiency of 35-50%. Saturation data were evaluated by Scatchard analysis using both the EBDA NcPherson, G. A., Computer Programs Biomed.

For data set [9], the system named is sigma site in brain sections. Nature of the data set: receptor autoradiography of [3H]DTG binding, brain sections. The arrangement: species or system guinea pig and rat. Conditions: 2 nM [3H]DTG. How it is done:
Male Sprague Dawley rats (200-250 g) and NIH guinea pigs (300-350 g) were sacrificed, their brains rapidly removed and processed for receptor autoradiography according to the method of Herkenham et al. J. Neuroscience 2:1129-1149 (1982).
Incubations were terminated by 4×2 minute washes in […] Tris-HCl (pH 7.4, 4° C.) with 1 mg/ml BSA, rapidly dried under a stream of cool air and placed in x-ray cassettes with ^3 H-sensitive film (^3 H-ultrofilm, LKB). Films were developed 6-8 weeks later (D-19, Kodak).

[10] abbreviates: Example 25, guinea pig brain membrane homogenates, read-out: IC50 binding values.
Setting [11] is: list of especially preferred compounds, read-out: IC50 (high binding to the sigma receptor).
[12] abbreviates: read-out: IC50 vs [3H]DTG, Table II, ± s.e.m. (n).

SMILES strings stand for the structures. “Also recorded” adds a separate entry of the source. Where two headings read alike, the source gives them in different places.

One may read the IC50 as the point on the concentration scale where inhibition reaches its midpoint. For orientation: Kd means the constant that tells how readily two partners part at equilibrium. High values mean a looser complex, low ones a tighter complex.

T1 sequence (Q60492 whole entry): as above

`CCCN1CCCC(c2cccc(O)c2)C1` (single isomer, unassigned; (+)) [(+)3-PPP, 3-(3-hydroxyphenyl)-N-(1-propyl)-piperidine, reference compound]: the “effect on [3H]AZ-DTG labeling of the 29 kD polypeptide” value (from here on “effect on [3H]AZ-DTG labeling”) in data set [1] is “completely blocked”. Moreover, at sigma receptor [2], the midpoint of inhibition, the IC50, lay at 0.033 ± 0.012 µM.

Regarding `NCCc1c[nH]c2ccc(O)cc12` [5-OH-tryptamine, reference compound], the “displacement of [3H]DTG” value in the data set on sigma receptor [3] (10 uM) is “no significant displacement”. In addition, in data set [1], the “effect on [3H]AZ-DTG labeling” value is “unaffected”.

In the data set with sigma receptor [4], `CCCN1CCC[C@H](c2cccc(O)c2)C1` [(+)[^3 H]3-PPP, (+)[^3 H]3-(3-hydroxyphenyl)-N-(1-propyl)-piperidine] gave a Bmax of 80 pmol/g fresh brain weight and a dissociation constant (Kd) of 0.03 µM.

As to `CCCN1CCC[C@@H](c2cccc(O)c2)C1` [(-)3-PPP, reference compound], the IC50 on sigma receptor [3] (setting [10]) stood at 0.28 ± 0.021 µM; on sigma receptor [3] (read-out: IC50 vs. [3H]DTG, Table III, ± SEM, average from 2-4 separate experiments in triplicate), 0.28 ± 0.021 µM; against sigma receptor [2], 0.235 µM.

Consider `Cc1ccccc1NC(=N)NC12CC3CC(CC(C3)C1)C2` [AdTG, N-(Adamantan-1-yl)-N'-(2-methylphenyl)guanidine], for which the “in vitro [3H]DTG displacement activity” value in the data set with sigma receptor [3] was “found to possess the aforesaid in vitro [^3 H]DTG displacement activity”. In addition, the half-inhibitory concentration (IC50) on sigma receptor [3] (setting [10]) amounted to 0.0076 ± 0.0003 µM; at sigma receptor [3] (setting [11]), 0.0076 µM; at sigma receptor [3] (read-out: IC50, [3H]DTG displacement in guinea-pig brain homogenates, most potent, n=6), 0.0026 ± 0.0006 µM; on sigma receptor [3] (read-out: IC50 vs [3H]DTG, Table I, guinea pig brain membranes) it was 0.003 ± 0.001 µM. Moreover, the “dose giving about the same result, relative to diazepam” value in [5] (0.1 mg/kg vs 1 mg/kg diazepam) was “about the same result at one-tenth the dose of diazepam”. Besides, in data set [5] (i.p., 10 min session, n=6, P<0.001), the “time spent in social interaction” value was “significantly increased social interactions”. In addition, the “numbers of line crossings and/or rears in the light compartment (vs dark)” value with anxiety behavior of mice (oral) and with anxiety behavior of mice (s.c.) was “increased at the expense of those in the dark compartment” throughout. In the data set on anxiety behavior of mice (oral), the “proportion of time in light area / percentage of time in black compartment” value was “increased significantly the proportion of time the mice spent in the larger, lighted area”. Further, the anxiolytic activity entry in the data set with anxiety behavior of mice (oral, 1 mg/kg) is on record as “have anxiolytic activity when orally administered”. Moreover, the “latency to entering the dark compartment” value with anxiety behavior of mice (s.c.) is given as “increased in a dose-dependent manner”. The “proportion of time spent in the lighted area” value with anxiety behavior of mice (s.c.) is given as “dose dependently increased the proportion of time the mice spent in the larger, lighted area”. Also, in the data set with anxiety behavior of mice (s.c.), the “sedation: total numbers of rears and line crossings” value is recorded as “did not decrease significantly showing that the drug was not sedative at this level”.

In the case of `N=C(Nc1ccccc1)Nc1ccccc1` [DPG, N,N'-di(phenyl)guanidine], the substitution for cyclazocine entry in [6] is “fully substitutable for cyclazocine”.

`Cc1ccccc1NC(=N)Nc1ccccc1C` [DTG, N,N'-di-(2-methylphenyl)guanidine]: the “in vitro [3H]DTG displacement activity” value in the data set with sigma receptor [3] was “found to possess the aforesaid in vitro [^3 H]DTG displacement activity”. Also, the substitution for cyclazocine entry in [6] was “fully substitutable for cyclazocine”. In the data set with PCP receptor, the “activity in [3H]-PCP binding assay” value was “virtually inactive”. Besides, in the data set on anxiety behavior of mice (s.c.), the anxiolytic activity entry is recorded as “does not exhibit anxiolytic activity”. The “rears, crossings, % time in the black compartment” value with anxiety behavior of mice (s.c., concentrations tested) is “did not affect significantly”.

In the case of `NCCCC(=O)O` [GABA, γ-aminobutyric acid, reference compound], the “displacement of [3H]DTG” value in the data set with sigma receptor [3] (10 uM) is “no significant displacement”. In data set [1], the “effect on [3H]AZ-DTG labeling” value is listed as “unaffected”.

For `N=C(Nc1ccc(F)cc1F)NC12CC3CC(CC(C3)C1)C2` [N-(Adamantan-1-yl)-N'-(2,4-difluorophenyl)guanidine], the half-maximal inhibitory concentration (IC50) on sigma receptor [3] (setting [11]) was 0.00892 µM; on sigma receptor [3] (setting [12]), 0.00892 µM; in data set [3H]MK-801, > 10 µM.

On to `N=C(Nc1ccc(F)cc1C(F)(F)F)NC12CC3CC(CC(C3)C1)C2` [N-(Adamantan-1-yl)-N'-(2-trifluoromethyl-4-fluorophenyl)guanidine], for which the values for the half-maximal inhibitory concentration (IC50) (on sigma receptor [3] (setting [11]); at sigma receptor [3] (setting [12]); in [3H]MK-801) were 0.004 µM, 0.00427 µM and 31.9 µM, respectively.

As to `N=C(Nc1ccccc1C(F)(F)F)NC12CC3CC(CC(C3)C1)C2` [N-(Adamantan-1-yl)-N'-(2-trifluoromethylphenyl)guanidine], the half-maximal inhibitory concentration (IC50) on sigma receptor [3] (setting [11]) was 0.00744 µM; at sigma receptor [3] (setting [12]), 0.00744 µM; in data set [3H]MK-801 it was 23.1 µM.

For the compound `N=C(Nc1ccc2oc(=O)ccc2c1)NC12CC3CC(CC(C3)C1)C2` [N-(Adamantan-1-yl)-N'-(6-coumarinyl)-guanidine], the results for the IC50 (on sigma receptor [3] (setting [11]); at sigma receptor [3] (setting [12]); in data set [3H]MK-801) were 0.0219 µM, 0.0219 µM and > 10 µM, respectively.

`N=C(Nc1cccc2ccc(=O)oc12)NC12CC3CC(CC(C3)C1)C2` [N-(Adamantan-1-yl)-N'-(8-coumarinyl)-guanidine]: the IC50 on sigma receptor [3] (setting [12]) turned out to be 0.0439 µM; in [3H]MK-801, 6.7 µM.

Turning to `Cc1cc(Br)ccc1NC(=N)NC1CCCCC1` [N-Cyclohexyl-N'-(2-methyl-4-bromophenyl)guanidine], the “in vitro [3H]DTG displacement activity” value in the data set with sigma receptor [3] is “found to possess the aforesaid in vitro [^3 H]DTG displacement activity”. Further, the IC50 on sigma receptor [3] (setting [10]) was determined as 0.0055 µM; at sigma receptor [3] (setting [11]) it was 0.0055 µM; on sigma receptor [3] (setting [12]), 0.00467 µM; in data set [3H]MK-801, 23.9 µM.

As for `Cc1ccccc1NC(=N)Nc1ccc(N=[N+]=[N-])cc1C` [[^3 H]AZ--DTG, [^3 H]-m-azido-1,3-di-o-tolylguanidine], in data set [1] (fluorography of SDS-PAGE gels after UV irradiation), the “size of polypeptide selectively labeled” value turned out to be 29 kD. This compound also showed a Kd in data set [7] of 0.028 µM.

`[3H]c1ccc(NC(=N)Nc2ccc([3H])cc2C)c(C)c1` [[^3 H]DTG, N,N'-di-(4-[^3 H]-2-methylphenyl)-guanidine]: the “specific binding of total [3H]DTG binding” value in the data set on sigma receptor [3] is > 90%. Also, in the data set with sigma receptor [8], the “specific binding, % of total binding” value is given as 90-97%; the “binding to sigma receptor sites (words)” value is “binds specifically and with high affinity to a single class of binding sites; also recorded: bound specifically, saturably, reversibly, and with high affinity”. The compound further gave a total binding in the data set with sigma receptor [8] (0.9 nM [3H]DTG) of 2700 cpm. The nonspecific binding in the data set on sigma receptor [8] (0.9 nM [3H]DTG, 10 uM DTG or 10 uM haloperidol) is reported as 50-150 cpm. Further, in the data set with sigma receptor [8] (100° C. for 10 minutes prior to assay), the “abolition of specific binding by boiling of membranes” value is 90%. Moreover, the reversibility of binding result in the data set with sigma receptor [8] (after addition of 10 uM unlabeled DTG) was “fully reversible”. The “binding to sigma receptor sites (words)” value with sigma receptor [8] (listed as [^3 H]--DTG) was “binds reversibly, saturably, selectively and with high affinity”. In addition, the “maximum number of binding sites (Bmax)” value with sigma receptor [8] (original wet weight) was 85 pmol/g brain tissue. For the same compound, the “time to binding equilibrium” value with sigma receptor [8] (room temperature) lay in the range of 60 to 90 min. Also, the “distribution/density of [3H]DTG binding” value in [9] was “low density of specific binding diffusely distributed throughout the gray matter; also recorded: heterogeneous distribution of enriched binding in limbic and sensorimotor structures; also recorded: Very dense binding was seen in the choroid plexus; also recorded: very dense binding was found in the subcommissural organ; also recorded: The oculomotor nucleus, and more caudally, the trochlear nucleus were very densely labeled; also recorded: In the hindbrain the locus coeruleus was the most densely labeled nucleus”.

`NCCc1ccc(O)c(O)c1` [dopamine, reference compound]: in the data set on sigma receptor [3], the “displacement of [3H]DTG” value is “no significant displacement”. The “effect on [3H]AZ-DTG labeling” value in data set [1] is listed as “unaffected”.
